This note sets out measurements from patent US20070191431A1, “2-Amino-5-piperidinylimidazolone compounds and use thereof for beta-secretase modulation” (Wyeth, priority 2005, published 2007).

One data set concerns the target human BACE1 (Homo sapiens, UniProt P56817). In words: BACE-1 fluorescent kinetic assay (Example 88). In kind it is biochemical. The conditions noted are these: 10 nM enzyme, 25 μM substrate WABC-6, Na-Acetate pH 4.5, room temperature; read-out: BACE1 (IC50 μM). As to the method: Evaluation of BACE-1 Binding Affinity of Test Compounds
Fluorescent Kinetic Assay
Dilution and mixing steps: total reaction volume: 100 μL
100 μM substrate dilution in 1× PBS was prepared, and
Fluorescence Readings: Readings at Aex 320 nm and Aem 420 nm are taken every 40 sec for 30 min at room temperature and the linear slope for substrate cleavage rate (vi) determined.

Sequence of human BACE1 (P56817 46-501): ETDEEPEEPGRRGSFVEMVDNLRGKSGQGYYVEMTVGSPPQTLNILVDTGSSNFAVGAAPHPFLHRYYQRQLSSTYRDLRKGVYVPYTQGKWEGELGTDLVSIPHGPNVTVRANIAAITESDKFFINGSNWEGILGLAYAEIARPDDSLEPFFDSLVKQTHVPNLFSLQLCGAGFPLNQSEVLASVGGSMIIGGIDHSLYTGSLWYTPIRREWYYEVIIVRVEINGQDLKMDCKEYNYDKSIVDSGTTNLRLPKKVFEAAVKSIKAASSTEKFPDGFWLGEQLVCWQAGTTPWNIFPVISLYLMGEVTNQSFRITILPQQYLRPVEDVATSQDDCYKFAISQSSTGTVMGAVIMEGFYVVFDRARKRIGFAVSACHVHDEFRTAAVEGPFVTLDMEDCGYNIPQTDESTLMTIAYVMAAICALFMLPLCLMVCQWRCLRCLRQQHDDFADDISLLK

A word on the IC50: it is the concentration at which inhibition is half-maximal. The term melting point denotes the temperature of the solid-liquid transition. As to `CN1C(=O)C(c2cccc(-c3ccccc3)c2)(C2CCN(C(=O)c3ccc4c(c3)OCO4)CC2)N=C1N` (stereo not shown) [Example 14, 2-amino-5-[1-(1,3-benzodioxol-5-ylcarbonyl)piperidin-4-yl]-5-(1,1′-biphenyl-3-yl)-3-methyl-3,5-dihydro4H-imidazol-4-one], the melting point lay within 133 to 135 °C. In addition, the IC50 on human BACE1 lay within 1.01 to 3 µM.

As to `CC(C)C(=O)N1CCC(C2(c3cccc(-c4ccccc4)c3)N=C(N)N(C)C2=O)CC1` (stereo not shown) [Example 2, 2-Amino-5-(1,1′-biphenyl-3-yl)-5-(1-isobutyrylpiperidin-4-yl)-3-methyl-3,5-dihydro-4H-imidazol-4-one], the melting point lay within 131 to 134 °C. Moreover, the IC50 at human BACE1 lay within 0.01 to 1 µM.

`COCC(=O)Nc1cccc(C2(C3CCN(C(=O)C(F)(F)F)CC3)N=C(N)N(C)C2=O)c1` (stereo not shown) [Example 58]: the melting point was 120 to 122 °C. Moreover, the IC50 on human BACE1 was in the range of 0.01 to 1 µM.

With `COCC(=O)Nc1cccc(C2(C3CCN(C(=O)c4ccc(OCc5ccccc5)cc4)CC3)N=C(N)N(C)C2=O)c1` (stereo not shown) [Example 33], the melting point lay within 149 to 152 °C. The IC50 at human BACE1 fell in the range of 0.01 to 1 µM.

As for `COCC(=O)Nc1cccc(C2(C3CCN(C(=O)c4cccc(F)c4)CC3)N=C(N)N(C)C2=O)c1` (stereo not shown) [Example 50], the melting point lay within 150 to 153 °C. The IC50 at human BACE1 was 0.01 to 1 µM.

Compound `COCC(=O)Nc1cccc(C2(C3CCN(C(=O)c4ccoc4)CC3)N=C(N)N(C)C2=O)c1` (stereo not shown) [Example 53] displayed a melting point of 140 to 142 °C. In addition, at human BACE1, the IC50 fell in the range of 0.01 to 1 µM.

Turning to `COCC(=O)Nc1cccc(C2(C3CCN(C(=O)C4CCCC4)CC3)N=C(N)N(C)C2=O)c1` (stereo not shown) [Example 40], the melting point lay within 134 to 136 °C. The IC50 on human BACE1 lay in the range of 0.01 to 1 µM.

Turning to `CN1C(=O)C(c2cccc(-c3ccccc3)c2)(C2CCN(C(=O)c3ccsc3)CC2)N=C1N` (stereo not shown) [Example 12, 2-amino-5-(1,1′-biphenyl-3-yl)-3-methyl-5-[1-(thien-3-ylcarbonyl)piperidin-4-yl]-3,5-dihydro-4H-imidazol-4-one], the melting point lay within 138 to 140 °C. In addition, the IC50 on human BACE1 lay within 0.01 to 1 µM.
